Experimental data: paper PMC4426631, “Insect antimicrobial peptides show potentiating functional interactions against Gram-negative bacteria” (Proceedings of the Royal Society B: Biological Sciences, 2015)
Entries after “also recorded” stand apart in the source; their conditions may differ. Ends that are not written are not given here. Peptide text beside a SMILES is read from it. * marks the point of attachment. 5FAM = O=C1OC2(c3ccc(O)cc3Oc3cc(O)ccc32)c2ccc(C(=O)*)cc21; Cf = 5(6)-carboxyfluorescein

Assays:
[1] = target: T1, E. coli DnaK (Escherichia coli, UniProt P0A6Y8); assay: FRET quenching peptide–protein interaction assay with DnaK–BHQ10; type: binding; details: 2 h, n = 3; for DnaK interaction / binding-curve shape, in words / Kd not determinable: pH 7.4; for Kd not determinable: DnaK–BHQ10 quenching, peptide N-terminal carboxyfluorescein, C-terminal amide
Protocol: DnaK, produced by Michael Zahn, was dialysed against modifying buffer (20 mmol l^−1 Na2HPO4, 20 mmol l^−1 KH2PO4, 5 mmol l^−1 MgCl2, 150 mmol l^−1 KCl, pH 7.4) as previously described and 2 mg ml^−1 were labelled with a 10-fold molar excess of BHQ10-NHS-ester, followed by supplementary dialysis to remove excess BHQ10.
As previously described, the fluorescein-modified peptides (50 μl, 1.3 nmol l^−1) and a serial dilution of DnaK–BHQ10 in modification buffer (50 μl, 0.8–13 000 nmol l^−1, 1 : 4 dilution series) were mixed in a black 384-well plate and incubated for 2 h. To calculate the quenching effect, a control was measured in five replicates consisting of 50 μl of peptide solution and 50 μl of modification buffer. The fluorescence intensity was recorded on a Paradigm fluorescence reader using a fluorescence intensity (fluo-rhod) detection cartridge (excitation wavelength = 485 ± 10 nm; emission wavelength = 535 ± 12.5 nm; integration time = 140 ms). The quenching effect was defined as the percentage of the fluorescence intensity of the control quenched after the addition of DnaK–BHQ10. Kd values were determined as described in the electronic supplementary material. […]
i) Peptide synthesis and modification.
The peptide sequences shown in Tabl es S1 an d S4 were selected according to their repo rted […]
(Carmel, USA), respectively. The m ature peptide sequences were based on data from closel y-related species and EST information derived from B. terrestris. Other peptides were s ynthesized b y PANATecs (Tübingen, Germ an y) . All peptides were l yoph ilized for storage, and were resuspended and diluted in double-distilled water, which was used as the zero peptide […]
metchnikowin 1 and 2 (Drosophila melanogaster) peptides were modified by the N -terminal addition of 5(6 )-carbox yfluorescein and C -terminal amidation for the quenching assa y. Bombus pascuorum h ymenoptaecin was modified b y the addition of an N-terminal p yroglutamate. The Black Hole Quencher 10 succinimidyl ester (BHQ10-NHS-ester, >75% purit y) was obtained from BioCat (H eidelber g, German y). […]

[2] = target: T1, E. coli DnaK; details: ref [51]; cited from earlier work
[3] = system: substrate-binding domain of DnaK; details: co-crystal structures; ref [58]; cited from earlier work
Excerpt: Normally, the characteristic sequence stretch YL/IPRP is positioned in the DnaK substrate-binding cleft, with a leucine or isoleucine residue occupying the central hydrophobic pocket. Additional hydrophobic binding sites preceding the central pocket are occupied by the conserved tyrosine residue and another, preferentially hydrophobic amino acid residue, defined as posi ...

[4] = system: E. coli; parameters: method as in PMID 6396089; details: following treatment with H. cecropia attacin; ref [15]; cited from earlier work
[5] = fluorescein-modified peptide 1.3 nmol l−1, DnaK–BHQ10 0.8–13 000 nmol l−1

T1 sequence (P0A6Y8 whole entry): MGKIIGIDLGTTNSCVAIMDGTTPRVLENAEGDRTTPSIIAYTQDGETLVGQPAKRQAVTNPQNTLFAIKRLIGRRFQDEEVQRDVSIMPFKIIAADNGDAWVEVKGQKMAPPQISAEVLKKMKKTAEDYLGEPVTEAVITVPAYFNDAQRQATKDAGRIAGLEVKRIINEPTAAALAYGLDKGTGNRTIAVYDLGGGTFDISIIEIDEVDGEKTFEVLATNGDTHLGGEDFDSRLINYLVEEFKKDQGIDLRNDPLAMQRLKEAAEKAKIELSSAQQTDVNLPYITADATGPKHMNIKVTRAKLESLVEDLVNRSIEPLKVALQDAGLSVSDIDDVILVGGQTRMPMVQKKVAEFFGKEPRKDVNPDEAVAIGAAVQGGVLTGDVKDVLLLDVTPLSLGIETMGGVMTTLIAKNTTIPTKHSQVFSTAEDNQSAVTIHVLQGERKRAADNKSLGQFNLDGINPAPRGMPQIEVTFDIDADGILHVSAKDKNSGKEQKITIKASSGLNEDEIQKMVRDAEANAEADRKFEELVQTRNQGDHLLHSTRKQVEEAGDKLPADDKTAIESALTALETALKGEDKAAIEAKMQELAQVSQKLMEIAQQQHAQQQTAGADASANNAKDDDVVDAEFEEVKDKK

Molecule	DnaK interaction / binding-curve shape, in words [1, 5]	Kd not determinable [1]	further results
CC[C@H](C)[C@H](NC(=O)[C@H](CCCCN)NC(=O)[C@@H]1CCCN1C(=O)[C@H](CC(N)=O)NC(=O)[C@H](Cc1ccccc1)NC(=O)[C@@H]1CCCN1C(=O)CNC(=O)[C@H](Cc1c[nH]cn1)NC(=O)CNC(=O)[C@@H]1CCCN1C(=O)[C@H](Cc1ccccc1)NC(=O)[C@H](CO)NC(=O)[C@@H]1CCCN1C(=O)[C@H](Cc1ccccc1)NC(=O)[C@@H]1CCCN1C(=O)[C@H](CCCCN)NC(=O)[C@H](CO)NC(=O)[C@H](CCC(N)=O)NC(=O)CNC(=O)[C@@H]1CCCN1C(=O)[C@H](CCCNC(=N)N)NC(=O)[C@@H]1CCCN1C(=O)[C@@H]1CCCN1C(=O)[C@H](CC(N)=O)NC(=O)[C@H](Cc1ccc(O)cc1)NC(=O)[C@@H]1CCCN1C(=O)[C@@H](NC(=O)[C@H](Cc1ccccc1)NC(=O)c1ccc2c(c1)C(=O)OC21c2ccc(O)cc2Oc2cc(O)ccc21)C(C)C)C(=O)N[C@@H](CCC(N)=O)C(=O)N[C@@H](Cc1c[nH]c2ccccc12)C(=O)N1CCC[C@H]1C(=O)N[C@@H](Cc1ccc(O)cc1)C(=O)N1CCC[C@H]1C(=O)N[C@@H](CC(C)C)C(=O)N1CCC[C@H]1C(=O)N[C@@H](CC(N)=O)C(=O)N1CCC[C@H]1C(=O)NCC(=O)N[C@@H](Cc1c[nH]cn1)C(N)=O [B. pascuorum abaecin] (5FAM-FVPYNPPRPGQSKPFPSFPGHGPFNPKIQWPYPLPNPGH-NH2)	–	–	maximum quenching effect (binding efficacy) ([1]; fluorescein-modified peptide 1.3 nmol l−1, DnaK–BHQ10 0.8–13 000 nmol l−1, buffer pH 7.4, fluorescence): 74%
Cf-PQPRPPHPRL-OH [apidaecin 1b (#9–18)]	small increase in control readouts with increasing probe concentration	–	DnaK interaction of control peptide, in words [2]: interacts minimally with DnaK
Pyrrhocoricin: proline-rich DnaK-binding AMP (VDKGSYLPRPTPPRPIYNRN; ends and bridges not checked; UniProt P37362 1-20, looked up)	–	–	DnaK binding orientation [3]: can bind to DnaK in both of the above orientations
cecropin B: Hyalophora cecropia cecropin B (KWKVFKKIEKMGRNIRNGIVKAGPAIAVLGEAKAL; ends and bridges not checked; UniProt P01508 27-61, looked up)	–	–	sensitivity of E. coli towards cecropin B following attacin [4]: enhanced
drosocin: proline-rich DnaK-binding AMP (GKPRPYSPRPTSHPRPIRV; ends and bridges not checked; UniProt P36193 22-40, looked up)	–	–	DnaK binding orientation [3]: a proline residue near the C-terminus of drosocin occupies the central pocket
metalnikowin I: proline-rich AMP from Palomena prasina (Cf-VDKPDYRPRPRPPNM-NH2)	do not interact significantly with bacterial DnaK	No Kd values could be determined; also recorded: not possible to assign a Kd value	–
metchnikowin 1: proline-rich AMP from Drosophila melanogaster (Cf-HRHQGPIFDTRPSPFNPNQPRPGPIY-NH2)	do not interact significantly with bacterial DnaK	No Kd values could be determined; also recorded: not possible to assign a Kd value	–
metchnikowin 2: proline-rich AMP from Drosophila melanogaster (Cf-HRRQGPIFDTRPSPFNPNQPRPGPIY-NH2)	do not interact significantly with bacterial DnaK	No Kd values could be determined; also recorded: not possible to assign a Kd value	–
